Reference: patent US11566007B2, “Ras inhibitors” (Revolution Medicines, Inc., priority 2019, dated 2023)
Where “and” joins values, the source holds several entries; their conditions need not be identical. Identical values can stand only once.

Key:
K-Ras G13C = K-Ras G13C (Homo sapiens (Human), UniProt P01116+P62937, G13C); experiment: Ras-Raf (BRAF RBD) disruption / FRET / MOA assay, KRAS G13C; type: biochemical; conditions: KRAS G13C; Ras-Raf disruption/FRET/MOA assay; read-out: IC50* KRAS G13C FRET data
Summary of the method: (§1)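 TR-FRET read-out: a drop in ratio relative to DMSO wells marks disruption of the Ras:RAF complex, reported as IC50. Compounds (3-fold series, 10 points, top 30 μM final) incubated 3 h at 25° C before Eu-anti-His 10 nM and APC-anti-GST 50 nM, 1.5 h more.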

NRAS WT = NRAS WT (Homo sapiens (Human), UniProt P01111+P62937); experiment: Ras-Raf (BRAF RBD) disruption / FRET / MOA assay, NRAS WT; type: biochemical; conditions: read-out: IC50* NRAS WT FRET data
Summary of the method: (§2)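 Compounds were tested as a 10-point 3-fold dilution series from 30 μM final for their ability to drive ternary complex formation between nucleotide-loaded Ras and cyclophilin A, displacing the BRAF RBD. After 3 h at 25° C., anti-His Eu-W1024 (10 nM) and anti-GST allophycocyanin (50 nM) were added for 1.5 h. A TR-FRET ratio decrease versus DMSO gave IC50.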

NRAS Q61K = NRAS Q61K (Homo sapiens (Human), UniProt P01111+P62937, Q61K); experiment: Ras-Raf (BRAF RBD) disruption / FRET / MOA assay, NRAS Q61K; type: biochemical; conditions: NRAS Q61K; Ras-Raf disruption/FRET/MOA assay; read-out: IC50* NRAS Q61K FRET data
Summary of the method: as §2

KRAS G12V = KRAS G12V (Homo sapiens (Human), UniProt P01116+P62937, G12V); experiment: Ras-Raf (BRAF RBD) disruption / FRET / MOA assay, KRAS G12V; type: biochemical; conditions: read-out: IC50* KRAS G12V FRET data
Summary of the method: as §1

KRAS WT = KRAS WT (Homo sapiens (Human), UniProt P01116+P62937); experiment: Ras-Raf (BRAF RBD) disruption / FRET / MOA assay, KRAS WT; type: biochemical; conditions: read-out: IC50* KRAS WT FRET data
Summary of the method: as §1

NRAS Q61R = NRAS Q61R (Homo sapiens (Human), UniProt P01111+P62937, Q61R); experiment: Ras-Raf (BRAF RBD) disruption / FRET / MOA assay, NRAS Q61R; type: biochemical; conditions: NRAS Q61R; Ras-Raf disruption/FRET/MOA assay; read-out: IC50* NRAS Q61R FRET data
Summary of the method: as §2

K-Ras G12C = K-Ras G12C (Homo sapiens (Human), UniProt P01116+P62937, G12C); experiment: Ras-Raf (BRAF RBD) disruption / FRET / MOA assay, KRAS G12C; type: biochemical; conditions: KRAS G12C; Ras-Raf disruption/FRET/MOA assay; read-out: IC50* KRAS G12C FRET data
Summary of the method: as §1

KRAS G12D = KRAS G12D (Homo sapiens (Human), UniProt P01116+P62937, G12D); experiment: Ras-Raf (BRAF RBD) disruption / FRET / MOA assay, KRAS G12D; type: biochemical; conditions: Ras-Raf disruption/FRET/MOA assay; class symbols; read-out: KRAS G12D FRET data IC50
Summary of the method: as §1

KRAS Q61H = KRAS Q61H (Homo sapiens (Human), UniProt P01116+P62937, Q61H); experiment: Ras-Raf (BRAF RBD) disruption / FRET / MOA assay, KRAS Q61H; type: biochemical; conditions: Ras-Raf disruption/FRET/MOA assay; class symbols; read-out: KRAS Q61H FRET data IC50
Summary of the method: as §2

NRAS G12C = NRAS G12C (Homo sapiens (Human), UniProt P01111+P62937, G12C); experiment: Ras-Raf (BRAF RBD) disruption / FRET / MOA assay, NRAS G12C; type: biochemical; conditions: read-out: IC50* NRAS G12C FRET data
Summary of the method: as §1

KRAS G13D = KRAS G13D (Homo sapiens (Human), UniProt P01116+P62937, G13D); experiment: Ras-Raf (BRAF RBD) disruption / FRET / MOA assay, KRAS G13D; type: biochemical; conditions: read-out: IC50* KRAS G13D FRET data
Summary of the method: as §1

KRAS G12S = KRAS G12S (Homo sapiens (Human), UniProt P01116+P62937, G12S); experiment: Ras-Raf (BRAF RBD) disruption / FRET / MOA assay, KRAS G12S; type: biochemical; conditions: Ras-Raf disruption/FRET/MOA assay; class symbols; read-out: KRAS G12S FRET data IC50
Summary of the method: as §1

NCI-H358 (K-Ras G12C) = experiment: CellTiter-Glo cell viability assay, NCI-H358; type: cell-based, human; conditions: Homo sapiens, NCI-H358, 120 h, NCI-H358, 5-day treatment; class symbols; read-out: Additional H358 Cell Viability assay data (K-Ras G12C, IC50)
Summary of the method: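 Steps: compound dispensed into wells holding cells; incubation to day 5; ~30 min room-temperature equilibration; luminescence read; sample signal divided by mean DMSO signal, times 100; four-parameter logistic curve fit.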

[1] = tested on: NCI-H358 cells (K-Ras G12C); experiment: Potency assay: pERK in NCI-H358 cells; type: cell-based, human; conditions: Homo sapiens, NCI-H358; H358 KRAS G12C; read-out: pERK EC50
Summary of the method: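 Inhibition of cellular pERK after a 4 h treatment, detected by AlphaLISA or In-Cell Western. IC50 from a four-parameter concentration-response fit.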

Chain of KRAS G12V (P01116-2 other isoform, or with tags, fused parts or gaps G12V): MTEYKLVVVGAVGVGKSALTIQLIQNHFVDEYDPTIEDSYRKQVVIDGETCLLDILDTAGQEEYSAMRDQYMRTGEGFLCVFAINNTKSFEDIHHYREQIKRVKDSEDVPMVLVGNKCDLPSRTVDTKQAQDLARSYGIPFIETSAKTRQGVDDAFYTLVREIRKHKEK
Chain of KRAS G12V (P62937 whole entry): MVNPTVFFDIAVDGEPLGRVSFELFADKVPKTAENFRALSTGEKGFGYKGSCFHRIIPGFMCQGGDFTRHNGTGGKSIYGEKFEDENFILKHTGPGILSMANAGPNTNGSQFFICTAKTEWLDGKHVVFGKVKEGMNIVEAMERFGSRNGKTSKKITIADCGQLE
Chain of K-Ras G13C (P01116-2 other isoform, or with tags, fused parts or gaps G13C): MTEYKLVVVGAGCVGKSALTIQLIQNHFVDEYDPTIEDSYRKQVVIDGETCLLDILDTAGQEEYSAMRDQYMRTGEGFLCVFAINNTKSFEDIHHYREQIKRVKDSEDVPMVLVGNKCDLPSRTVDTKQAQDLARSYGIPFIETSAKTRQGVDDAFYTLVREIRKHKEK
Chain of K-Ras G13C (P62937 whole entry): as the sequence (P62937 whole entry) above
Chain of K-Ras G12C (P01116-2 other isoform, or with tags, fused parts or gaps G12C): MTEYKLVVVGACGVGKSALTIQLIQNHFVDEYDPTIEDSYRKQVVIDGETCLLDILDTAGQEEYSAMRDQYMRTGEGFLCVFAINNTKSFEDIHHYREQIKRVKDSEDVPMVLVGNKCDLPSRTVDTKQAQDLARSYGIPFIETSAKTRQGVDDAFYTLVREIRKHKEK
Chain of K-Ras G12C (P62937 whole entry): as the sequence (P62937 whole entry) above
Chain of KRAS G12D (P01116-2 other isoform, or with tags, fused parts or gaps G12D): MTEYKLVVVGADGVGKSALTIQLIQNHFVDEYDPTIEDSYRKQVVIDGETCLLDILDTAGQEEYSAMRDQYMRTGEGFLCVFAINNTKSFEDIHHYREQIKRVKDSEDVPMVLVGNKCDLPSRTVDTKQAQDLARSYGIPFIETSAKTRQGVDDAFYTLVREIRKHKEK
Chain of KRAS G12D (P62937 whole entry): as the sequence (P62937 whole entry) above
Chain of NRAS Q61K (P01111 whole entry Q61K): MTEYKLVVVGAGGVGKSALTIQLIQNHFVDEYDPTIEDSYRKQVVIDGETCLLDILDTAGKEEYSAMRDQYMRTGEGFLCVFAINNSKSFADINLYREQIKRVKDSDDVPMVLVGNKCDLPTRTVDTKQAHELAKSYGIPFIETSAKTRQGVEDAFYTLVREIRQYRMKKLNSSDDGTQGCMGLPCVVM
Chain of NRAS Q61K (P62937 whole entry): as the sequence (P62937 whole entry) above
Chain of KRAS Q61H (P01116-2 other isoform, or with tags, fused parts or gaps Q61H): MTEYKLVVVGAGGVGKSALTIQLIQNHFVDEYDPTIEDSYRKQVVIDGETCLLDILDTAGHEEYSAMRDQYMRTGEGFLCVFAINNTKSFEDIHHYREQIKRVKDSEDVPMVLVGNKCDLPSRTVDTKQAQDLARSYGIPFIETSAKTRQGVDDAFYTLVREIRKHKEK
Chain of KRAS Q61H (P62937 whole entry): as the sequence (P62937 whole entry) above
Chain of NRAS WT (P01111 whole entry): as the sequence (P01111 whole entry Q61K) above, with K61Q counted along it
Chain of NRAS WT (P62937 whole entry): as the sequence (P62937 whole entry) above
Chain of KRAS G12S (P01116-2 other isoform, or with tags, fused parts or gaps G12S): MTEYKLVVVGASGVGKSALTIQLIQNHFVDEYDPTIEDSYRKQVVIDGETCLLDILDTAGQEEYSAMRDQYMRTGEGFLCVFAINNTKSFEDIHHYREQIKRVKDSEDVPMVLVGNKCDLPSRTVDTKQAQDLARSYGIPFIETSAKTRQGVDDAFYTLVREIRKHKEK
Chain of KRAS G12S (P62937 whole entry): as the sequence (P62937 whole entry) above
Chain of KRAS G13D (P01116-2 other isoform, or with tags, fused parts or gaps G13D): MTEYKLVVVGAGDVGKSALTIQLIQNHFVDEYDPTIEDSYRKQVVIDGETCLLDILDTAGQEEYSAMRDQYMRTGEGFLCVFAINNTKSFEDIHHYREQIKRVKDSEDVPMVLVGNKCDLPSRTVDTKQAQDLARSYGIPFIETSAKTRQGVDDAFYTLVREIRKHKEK
Chain of KRAS G13D (P62937 whole entry): as the sequence (P62937 whole entry) above
Chain of NRAS Q61R (P01111 whole entry Q61R): as the sequence (P01111 whole entry Q61K) above, with K61R counted along it
Chain of NRAS Q61R (P62937 whole entry): as the sequence (P62937 whole entry) above
Chain of NRAS G12C (P01111 whole entry G12C): as the sequence (P01111 whole entry Q61K) above, with G12C, K61Q counted along it
Chain of NRAS G12C (P62937 whole entry): as the sequence (P62937 whole entry) above
Chain of KRAS WT (P01116-2 other isoform, or with tags, fused parts or gaps): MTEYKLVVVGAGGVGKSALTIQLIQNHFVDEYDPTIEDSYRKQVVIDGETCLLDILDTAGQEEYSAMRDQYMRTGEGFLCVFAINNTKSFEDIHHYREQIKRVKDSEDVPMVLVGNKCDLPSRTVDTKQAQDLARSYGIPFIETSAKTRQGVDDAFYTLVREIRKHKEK
Chain of KRAS WT (P62937 whole entry): as the sequence (P62937 whole entry) above

SMILES | IC50 (K-Ras G13C) | IC50 (NRAS WT) [µM] | IC50 (NRAS Q61K) [µM] | IC50 (KRAS G12V) | IC50 (KRAS WT) | IC50 (NRAS Q61R) [µM] | IC50 (K-Ras G12C) | IC50 (KRAS G12D) | IC50 (KRAS Q61H) [µM] | IC50 (NRAS G12C) | IC50 (KRAS G13D) | IC50 (KRAS G12S) | IC50 (NCI-H358 (K-Ras G12C)) [µM] | EC50 [1] [µM]
C=CC(=O)N1CC[C@H](C(=O)N(C)[C@H](C(=O)N[C@H]2CC3=NN=C(S3)c3ccc4c(c3)c(c(-c3cccnc3[C@H](C)OC)n4CC)CC(C)(C)COC(=O)[C@@H]3CCCN(N3)C2=O)C(C)C)C1 (atropisomer, axis not shown) [Example A248] | > 10 µM | > 10 | > 10 | > 10 µM | > 10 µM | > 10 | 1 to 10 µM | > 10 µM | > 10 | 1 to 10 µM | > 10 µM | > 10 µM | > 1 | –
CC#CC(=O)N1CC[C@H](C(=O)N(C)[C@H](C(=O)N[C@H]2Cc3cccc(c3)-c3ccc4c(c3)c(c(-c3cccnc3[C@H](C)OC)n4C#N)CC(C)(C)COC(=O)[C@@H]3CCCN(N3)C2=O)C(C)C)C1 (atropisomer, axis not shown) [Example A304] | > 10 µM | > 10 | > 10 | > 10 µM | > 10 µM | > 10 | > 10 µM | > 10 µM | > 10 | > 10 µM | > 10 µM | > 10 µM | 0.1 to 1 | –
C=CC(=O)N(C)C(=O)N(C)[C@H](C(=O)N[C@H]1Cc2nc(cs2)-c2ccc3c(c2)c(c(-c2cccnc2[C@H](C)OC)n3CC)CC(C)(C)COC(=O)[C@@H]2CCCN(N2)C1=O)C(C)C (atropisomer, axis not shown) [Example A355] | > 10 µM | > 10 | > 10 | > 10 µM | > 10 µM | > 10 | > 10 µM | > 10 µM | > 10 | > 10 µM | > 10 µM | > 10 µM | 0.1 to 1 | –
C=CC(=O)N1CC[C@H](C(=O)N(C)[C@H](C(=O)N[C@H]2Cc3cccc(c3)-c3ccc4c(c3)c(c(-c3cnn(C)c3CN(C)C)n4CC)CC(C)(C)COC(=O)[C@@H]3CCCN(N3)C2=O)C(C)C)C1 (relative stereo) [Example A329] | > 10 µM | > 10 | > 10 | > 10 µM | > 10 µM | > 10 | > 10 µM | > 10 µM | > 10 | > 10 µM | > 10 µM | > 10 µM | 0.1 to 1 | –
C=CC(=O)N1CC[C@H](C(=O)N(C)[C@H](C(=O)N[C@H]2Cc3cccc(c3)-c3ccc4c(c3)c(c(-c3cc(N5CCN(C)CC5)cnc3[C@H](C)OC)n4CC)CC(C)(C)COC(=O)[C@@H]3CCCN(N3)C2=O)C(C)C)C1 (single isomer, unassigned) [Example A328] | 0.1 to 1 µM and > 10 µM | 1 to 10 | 1 to 10 | 1 to 10 µM and > 10 µM | 1 to 10 µM and > 10 µM | 1 to 10 | 0.01 to 0.1 µM and 1 to 10 µM | 1 to 10 µM and > 10 µM | 0.1 to 1 | 0.01 to 0.1 µM and 1 to 10 µM | 1 to 10 µM and > 10 µM | 0.1 to 1 µM and > 10 µM | – | < 5
C=CC(=O)N1CC[C@H](C(=O)N(C)[C@H](C(=O)N[C@H]2Cc3cc(O)cc(c3)-c3cc4c(c(-c5ccccc5CCOC)n(CC)c4cn3)CC(C)(C)COC(=O)[C@@H]3CCCN(N3)C2=O)C(C)C)C1 [Example A102] | > 10 µM | > 10 | > 10 | > 10 µM | > 10 µM | > 10 | 1 to 10 µM | > 10 µM | 1 to 10 | 1 to 10 µM | > 10 µM | > 10 µM | > 1 | –
C=CC(=O)C1C[C@@H](C(=O)N(C)[C@H](C(=O)N[C@H]2Cc3cc(O)cc(c3)-c3ccc4c(n3)c(c(-c3ccccc3CCOC)n4CC)CC(C)(C)COC(=O)[C@@H]3CCCN(N3)C2=O)C(C)C)CN1 (some centres unmarked) [Example A211] | > 10 µM | 1 to 10 | 1 to 10 | 1 µM to 10 µM and > 10 µM (3×) | > 10 µM | > 10 | 100 nM to 1 µM and 1 µM to 10 µM and > 10 µM (2×) | > 10 µM | 1 to 10 | 100 nM to 1 µM and 1 µM to 10 µM and > 10 µM (2×) | > 10 µM | 1 µM to 10 µM and > 10 µM (3×) | – | < 5
C=CC(=O)N1CC[C@H](C(=O)N(C)[C@H](C(=O)N[C@H]2Cc3cc(O)cc(c3)-c3ccc4nc(-c5cccnc5[C@H](C)OC)n(c4c3)CC(C)(C)COC(=O)[C@@H]3CCCN(N3)C2=O)C(C)C)C1 [Example A242] | 1 to 10 µM | > 10 | > 10 | 1 to 10 µM | > 10 µM | > 10 | 1 to 10 µM | > 10 µM | 1 to 10 | 1 to 10 µM | > 10 µM | > 10 µM | > 1 | –
C=CC(=O)N1CC[C@H](C(=O)N(C)[C@H](C(=O)N[C@H]2Cc3cc(O)cc(c3)-c3ccc4nc(-c5cccnc5COC)c(n4c3)CC(C)(C)COC(=O)[C@@H]3CCCN(N3)C2=O)C(C)C)C1 [Example A243] | > 10 µM | > 10 | > 10 | > 10 µM | > 10 µM | > 10 | > 10 µM | > 10 µM | > 10 | > 10 µM | > 10 µM | > 10 µM | > 1 | –
C=CC(=O)N1CC[C@H](C(=O)N(C)[C@H](C(=O)N[C@H]2Cc3nc(cs3)-c3ccc4c(n3)c(c(-c3cccnc3[C@H](C)OC)n4CC)CC(C)(C)COC(=O)[C@@H]3CCCN(N3)C2=O)C(C)C)C1 [Example A347, (2S)-N-[(7S,13S)-21-ethyl-20-{2-[(1S)-1-methoxyethyl]pyridin-3-yl}-17,17-dimethyl-8,14-dioxo-15-oxa-4-thia-9,21,25,27,28-pentaazapentacyclo[17.5.2.1^{2,5}.1^{9,13}.0^{22,26}]octacosa-1(25),2,5(28),19,22(26),23-hexaen-7-yl]-3-methyl-2-{N-methyl-1-[(3S)-1-(prop-2-enoyl)pyrrolidin-3-yl]formamido}butanamide] | 1 to 10 µM | 1 to 10 | 1 to 10 | > 10 µM | 1 to 10 µM | 1 to 10 | 0.1 to 1 µM | > 10 µM | 1 to 10 | 0.1 to 1 µM | > 10 µM | 1 to 10 µM | – | < 5
C=CC(=O)N1CCO[C@@H]2CCN(C(=O)N(C)[C@H](C(=O)N[C@H]3Cc4nc(cs4)-c4ccc5c(c4)c(c(-c4cccnc4[C@H](C)OC)n5CC)CC(C)(C)COC(=O)[C@@H]4CCCN(N4)C3=O)C(C)C)CC21 (some centres unmarked) [Example A596] | 0.1 to 1 µM | 0.01 to 0.1 | 0.01 to 0.1 | 0.1 to 1 µM | > 10 µM | 0.01 to 0.1 | 0.01 to 0.1 µM | 0.1 to 1 µM | 0.01 to 0.1 | 0.01 to 0.1 µM | 0.1 to 1 µM | 0.01 to 0.1 µM | – | < 5
